# Assay results: PubChem BioAssay (NCI)
# Several values for one entry are separate records, joined by “and”; a condition that tells them apart may be missing. Equal values may be shown once.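 Method: 48-hour compound exposure of cells in 96-well plates, five concentrations, linear interpolation of endpoints. Here, GI50 denotes the concentration required for 50% inhibition of growth. TGI: concentration producing complete growth inhibition.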
# Tests used:
# Experiment in all cases: DTP human tumour cell line panel, 48 h
# DU-145 prostate = test system: DU-145 prostate
# MDA-MB-231 breast = test system: MDA-MB-231 breast
# HOP-18 NSCLC = test system: HOP-18 NSCLC
# NCI-H460 lung = test system: NCI-H460 lung
# IGROV1 ovarian = test system: IGROV1 ovarian
# MCF7 breast = test system: MCF7 breast
# NCI-H226 lung = test system: NCI-H226 lung
# SF-295 CNS = test system: SF-295 CNS
# SR leukemia = test system: SR leukemia
# TK-10 renal = test system: TK-10 renal
# U251 CNS = test system: U251 CNS
# SNB-78 CNS = test system: SNB-78 CNS
# MOLT-4 leukemia = test system: MOLT-4 leukemia
# T-47D breast = test system: T-47D breast
# ACHN renal = test system: ACHN renal
# SK-MEL-28 melanoma = test system: SK-MEL-28 melanoma
# K-562 leukemia = test system: K-562 leukemia
# HS 578T breast = test system: HS 578T breast
# HCT-116 colon = test system: HCT-116 colon
# UACC-257 melanoma = test system: UACC-257 melanoma
# HT29 colon = test system: HT29 colon
# LOX IMVI melanoma = test system: LOX IMVI melanoma
# SNB-75 CNS = test system: SNB-75 CNS
# KM12 colon = test system: KM12 colon
# OVCAR-5 ovarian = test system: OVCAR-5 ovarian
# XF 498 CNS = test system: XF 498 CNS
# OVCAR-4 ovarian = test system: OVCAR-4 ovarian
# RXF 393 renal = test system: RXF 393 renal
# UO-31 renal = test system: UO-31 renal
# MDA-N = test system: MDA-N
# A549 NSCLC = test system: A549 NSCLC
# DLD-1 colon = test system: DLD-1 colon
# KM20L2 colon = test system: KM20L2 colon
# EKVX NSCLC = test system: EKVX NSCLC
# SNB-19 CNS = test system: SNB-19 CNS
# SF-268 CNS = test system: SF-268 CNS
# UACC-62 melanoma = test system: UACC-62 melanoma
# MALME-3M melanoma = test system: MALME-3M melanoma
# SK-MEL-5 melanoma = test system: SK-MEL-5 melanoma
# SK-OV-3 ovarian = test system: SK-OV-3 ovarian
# HOP-92 NSCLC = test system: HOP-92 NSCLC
# M14 melanoma = test system: M14 melanoma
# MDA-MB-435 = test system: MDA-MB-435
# 786-0 renal = test system: 786-0 renal
# HCT-15 colon = test system: HCT-15 colon
# SW-620 colon = test system: SW-620 colon
# HL-60(TB) leukemia = test system: HL-60(TB) leukemia
# OVCAR-3 ovarian = test system: OVCAR-3 ovarian
# M19-MEL melanoma = test system: M19-MEL melanoma
# DMS 114 small cell lung = test system: DMS 114 small cell lung
# NCI-H522 lung = test system: NCI-H522 lung
# SF-539 CNS = test system: SF-539 CNS
# A498 renal = test system: A498 renal
# HCC-2998 colon = test system: HCC-2998 colon
# COLO 205 colon = test system: COLO 205 colon
# DMS 273 small cell lung = test system: DMS 273 small cell lung
# BT-549 breast = test system: BT-549 breast
# CCRF-CEM leukemia = test system: CCRF-CEM leukemia
# NCI-H23 lung = test system: NCI-H23 lung
# RPMI-8226 leukemia = test system: RPMI-8226 leukemia
# NCI/ADR-RES ovarian = test system: NCI/ADR-RES ovarian
# CAKI-1 renal = test system: CAKI-1 renal
# SK-MEL-2 melanoma = test system: SK-MEL-2 melanoma
# HOP-62 NSCLC = test system: HOP-62 NSCLC
# LXFL 529 NSCLC = test system: LXFL 529 NSCLC
compound,measurement,setting,value
CN(C)CCCCCNc1c2ccccc2nc2cccc([N+](=O)[O-])c12,TGI,DU-145 prostate,3.46 nM
same,TGI,MDA-MB-231 breast,2.02 nM
same,TGI,HOP-18 NSCLC,> 100 nM
same,GI50,NCI-H460 lung,1.45 nM
same,GI50,IGROV1 ovarian,6.21 nM
same,TGI,IGROV1 ovarian,6.55 nM
same,GI50,MCF7 breast,0.212 nM
same,TGI,MCF7 breast,0.689 nM
same,TGI,NCI-H226 lung,57 nM
same,GI50,SF-295 CNS,9.7 nM
same,GI50,SR leukemia,0.559 nM
same,TGI,SR leukemia,6.97 nM and > 27.8 nM
same,TGI,TK-10 renal,20.7 nM
same,GI50,U251 CNS,6.5 nM
same,TGI,U251 CNS,25.1 nM
same,TGI,SNB-78 CNS,46.7 nM
same,GI50,MOLT-4 leukemia,6.27 nM
same,TGI,MOLT-4 leukemia,> 100 nM
same,GI50,T-47D breast,0.296 nM
same,TGI,T-47D breast,1.5 nM
same,GI50,ACHN renal,3.74 nM
same,TGI,ACHN renal,3.25 nM
same,TGI,SK-MEL-28 melanoma,11.3 nM
same,GI50,K-562 leukemia,2.12 nM
same,TGI,K-562 leukemia,> 94.5 nM
same,TGI,HS 578T breast,5.9 nM
same,GI50,HCT-116 colon,5.83 nM
same,TGI,HCT-116 colon,12 nM
same,TGI,UACC-257 melanoma,> 23.1 nM
same,GI50,HT29 colon,5.02 nM
same,TGI,HT29 colon,8.39 nM
same,TGI,LOX IMVI melanoma,11.3 nM
same,TGI,SNB-75 CNS,5.34 nM
same,TGI,KM12 colon,72.5 nM
same,GI50,OVCAR-5 ovarian,2.64 nM
same,TGI,OVCAR-5 ovarian,11.5 nM
same,TGI,XF 498 CNS,8.5 nM
same,GI50,OVCAR-4 ovarian,3.39 nM
same,TGI,OVCAR-4 ovarian,2.36 nM
same,GI50,RXF 393 renal,1.39 nM
same,TGI,RXF 393 renal,3.2 nM
same,GI50,UO-31 renal,12.5 nM
same,TGI,UO-31 renal,42.5 nM
same,TGI,MDA-N,0.409 nM
same,GI50,A549 NSCLC,5.71 nM
same,TGI,A549 NSCLC,2.35 nM
same,TGI,DLD-1 colon,31 nM
same,TGI,KM20L2 colon,53.2 nM
same,TGI,EKVX NSCLC,12.8 nM
same,TGI,SNB-19 CNS,> 23.1 nM and 31.7 nM
same,TGI,SF-268 CNS,12.5 nM and 18 nM
same,GI50,UACC-62 melanoma,5.22 nM
same,TGI,UACC-62 melanoma,4.04 nM
same,TGI,MALME-3M melanoma,5.06 nM
same,GI50,SK-MEL-5 melanoma,6.93 nM
same,TGI,SK-MEL-5 melanoma,3.35 nM
same,TGI,SK-OV-3 ovarian,> 24.5 nM
same,TGI,HOP-92 NSCLC,8.95 nM
same,TGI,M14 melanoma,3.12 nM
same,TGI,MDA-MB-435,0.488 nM
same,TGI,786-0 renal,7.98 nM
same,GI50,HCT-15 colon,2.18 nM and 2.74 nM
same,GI50,SW-620 colon,6.32 nM
same,TGI,SW-620 colon,12.6 nM
same,GI50,HL-60(TB) leukemia,2.66 nM
same,TGI,HL-60(TB) leukemia,> 100 nM
same,TGI,OVCAR-3 ovarian,5.04 nM
same,TGI,M19-MEL melanoma,19.4 nM
same,TGI,DMS 114 small cell lung,11.8 nM
same,GI50,NCI-H522 lung,1.54 nM and 0.466 nM
same,TGI,NCI-H522 lung,2.9 nM and 1.86 nM
same,TGI,SF-539 CNS,9.79 nM and 15.7 nM
same,TGI,A498 renal,7.58 nM
same,GI50,HCC-2998 colon,2.37 nM
same,TGI,HCC-2998 colon,12.6 nM
same,GI50,COLO 205 colon,5.91 nM
same,TGI,COLO 205 colon,1.73 nM
same,TGI,DMS 273 small cell lung,15.2 nM
same,TGI,BT-549 breast,2.62 nM
same,TGI,CCRF-CEM leukemia,> 100 nM and 10.2 nM
same,GI50,NCI-H23 lung,1.62 nM
same,TGI,NCI-H23 lung,3.44 nM and 2.34 nM
same,TGI,RPMI-8226 leukemia,> 100 nM and 18.8 nM
same,TGI,NCI/ADR-RES ovarian,5.5 nM
same,TGI,CAKI-1 renal,15.8 nM
same,TGI,SK-MEL-2 melanoma,2.57 nM
same,TGI,HOP-62 NSCLC,7.16 nM
same,TGI,LXFL 529 NSCLC,85 nM
